Each structure is given as a SMILES string. A value given as a limit tells only on which side of the number the result lay.

Assay [1] addresses T1, CDK2/CyclinA (Homo sapiens, UniProt P24941).
T1 construct: purchased Proqinase
In words: Kinase assay determining CDK2/CyclinA activity. Format: biochemical. As for the experimental part: (§1) Kinase Assays Determining CDK2/CyclinA and CDK5/p35 Activity:
(§2) Kinase assays were performed as described by the manufacturers recommendations (Proqinase for CDK2/CyclinA and Upsate for CDK5/p35).

Assay [2] has as its system PM1 cells. The experiment in a line: Growth assay using Alamar Blue. Format: cell-based. As for the experimental part:
Growth Assay Using Alamar Blue™:
PM1 cells were seeded in 12-well plates at a density of 1.5×10^5 per well with RPMI 1640 containing 10% FCS (fetal calf serum), 1% L-Glutamine and 1% Na-Pyruvate (Sigma). Cells were incubated with compound for 2-3 days (37° C., 6% CO2) followed by subsequent splitting and renewing of compound-containing medium. At each of these time points an aliquot of cells served as data point for relative growth (given in % of the DMSO control [=100%]). The cell number was determined by addition of 10 μL Alamar Blue™ (Biozol) to 100 μL cell aliquots following the manufacturer's instructions.

In assay [3] the target is T2, CDK5/p35 (Homo sapiens, UniProt Q00535).
T2 construct: purchased Upsate (Upstate)
T2 sequence (Q00535 whole entry): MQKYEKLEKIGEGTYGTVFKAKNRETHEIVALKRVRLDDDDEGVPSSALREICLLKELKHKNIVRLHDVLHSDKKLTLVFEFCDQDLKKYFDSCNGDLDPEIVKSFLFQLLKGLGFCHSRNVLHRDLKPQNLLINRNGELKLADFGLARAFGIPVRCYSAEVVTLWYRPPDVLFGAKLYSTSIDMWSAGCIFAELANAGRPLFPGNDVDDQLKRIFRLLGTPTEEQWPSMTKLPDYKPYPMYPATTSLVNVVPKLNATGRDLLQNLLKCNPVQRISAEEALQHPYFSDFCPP
T2 sequence (Q15078 whole entry partner): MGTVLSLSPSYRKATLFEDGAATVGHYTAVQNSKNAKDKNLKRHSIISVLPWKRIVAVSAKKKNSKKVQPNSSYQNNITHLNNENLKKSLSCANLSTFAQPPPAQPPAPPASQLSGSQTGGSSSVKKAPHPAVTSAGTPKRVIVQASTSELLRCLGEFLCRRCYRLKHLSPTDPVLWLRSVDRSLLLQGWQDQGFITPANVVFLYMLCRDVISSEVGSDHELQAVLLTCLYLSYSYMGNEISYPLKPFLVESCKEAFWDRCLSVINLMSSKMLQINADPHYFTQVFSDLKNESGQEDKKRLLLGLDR
In words: Kinase assay determining CDK5/p35 activity (selectivity panel). Particulars: 10 μM of compound, in comparison to DMSO (0% inhibition). Format: biochemical. As for the experimental part: as §1, §2
(§3) The activity of these protein kinases is depicted as % inhibition in the presence of 10 μM of compound in comparison to DMSO (0% inhibition).

The target of assay [4] is CDK1 (Homo sapiens, UniProt P06493). The experiment in a line: General kinase assay, selectivity panel: CDK1. Format: biochemical. The following applies: 10 μM of compound, in comparison to DMSO (0% inhibition). Summed up:
(§4)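 Values are percent inhibition at 10 μM compound versus DMSO, derived from scintillation counts of 33P-labelled substrate retained on phosphoric-acid-washed filter plates. Each kinase reacted with substrate, ATP and [γ-33P]ATP for one hour at room temperature before EDTA quench.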

Assay [5] has as its target EGFR (Homo sapiens, UniProt P00533). In words: General kinase assay, selectivity panel: EGFR. Particulars: 10 μM of compound, in comparison to DMSO (0% inhibition). Format: biochemical. Summed up:
as §4

Assay [6] addresses GSK-3β (Homo sapiens, UniProt P49841). In words: General kinase assay, selectivity panel: GSK-3β. Format: biochemical. The following applies: 10 μM of compound, in comparison to DMSO (0% inhibition). Summed up:
as §4

Assay [7] has as its system PDGFR. The experiment in a line: General kinase assay, selectivity panel: PDGFR. Format: biochemical. The following applies: 10 μM of compound, in comparison to DMSO (0% inhibition). Summed up: as §4
Assay [8] has as its target T3, CDK9 (Homo sapiens, UniProt P50750).
T3 construct: endogenous in cells; host or cells: PM1 cells (lysate)
The experiment in a line: Affinity chromatography with immobilised compound, PM1 cell lysate, mass spectrometry: CDK9. Format: binding. The following applies: compound coupled to ECH-Sepharose. The procedure:
(§5) Affinity Chromatography Experiments:
(§6) Coupling to epoxy-groups: 500 μl drained epoxy-activated Sepharose 6B (Amersham Biosciences) equilibrated to 50% DMF/0.1M Na2CO3 were resuspended in 1 ml 20 mM Compound 102 or 20 mM Compound 103, respectively, dissolved in 50% DMF (Dimethylfomamid)/0.1 M Na2CO3. 5 μl 10M NaOH was added followed by incubation overnight at 30° C. with permanent shaking in the dark. After washing three times in 1 ml 50% DMF/0.1M Na2CO3 the beads were incubated in 1 ml 1M ethanolamine for 6 h at 30° C. with permanent shaking in the dark followed by the denoted washing steps: 50% DMF/0.1M Na2CO3, then H2O, then 0.1M NaHCO3 pH 8.0/0.5M NaCl followed by 0.1M NaAc pH 4.0/0.1M NaCl and finally three times in chromatography buffer (see below) containing 150 mM NaCl. As control matrix epoxy-activated Sepharose 6B was incubated with 1M ethanolamine and equally treated as described above. The beads were stored in 20% ethanol at 4° C. in the dark.
Carbodiimide coupling: ECH-Sepharose 4B (Amersham Biosciences) was washed according to the manufacturer's instructions and equilibrated to 50% DMF/50% ethanol. 2.5 ml drained beads were resuspended in 5 ml 15 mM Compound 102 or Compound 103, respectively, dissolved in 50% DMF/50% ethanol followed by drop by drop addition of 750 μl 1M 1-ethyl-3-(3-dimethylaminopropyl) carbodiimide hydrochloride (EDC), dissolved in 50% DMF/50% ethanol. […]

In assay [9] the test system is protein kinases of PM1 cell lysates. In words: Affinity chromatography with immobilised compound, PM1 cell lysate, mass spectrometry: additional targets. Format: binding. The procedure:
as §5, §6
Carbodiimide coupling: ECH-Sepharose 4B (Amersham Biosciences) was washed according to the manufacturer's instructions and equilibrated to 50% DMF/50% ethanol. 2.5 ml drained beads were resuspended in 5 ml 15 mM Compound 102 or Compound 103, respectively, dissolved in 50% DMF/50% ethanol followed by drop by drop addition of 750 μl 1M 1-ethyl-3-(3-dimethylaminopropyl) carbodiimide hydrochloride (EDC), dissolved in 50% DMF/50% ethanol. The suspension was incubated overnight at room temperature with permanent end-over-end rotation and washed three times with 15 ml 50% DMF/50% ethanol prior to the addition of 5 ml 33% DMF/33% ethanol/34% 1M ethanolamine pH 8.0 and 650 μl EDC. After 2 h incubation at room temperature with permanent end-over-end rotation, beads were washed three times with 15 ml 50% DMF/50% ethanol, twice with 15 ml 0.5M NaCl and once with 15 ml 20% ethanol. Control beads were incubated with 5 ml 1M ethanolamine instead of compound and treated equally as described above. The beads were stored in 20% ethanol at 4° C. in the dark.
Affinity Chromatography and Preparative Gel Electrophoresis.
1.25×10^9 PM1 cells were lysed in 15 ml buffer containing 50 mM HEPES pH 7.5, 400 mM NaCl, 0.5% Triton X-100, 1 mM EDTA, 1 mM EGTA, 3 mM MgCl2, 1 mM DTT plus additives (10 mM sodium fluoride, 1 mM orthovanadate, 10 μg/ml aprotinin, 10 μg/ml leupeptin, 1 mM PMSF), cleared by centrifugation and adjusted to 1M NaCl. The filtered lysate was loaded with a flow rate of 100 μl/min on a […] chromatography column containing 500 μl Compound 102 or Compound 103 matrix, respectively, equilibrated to chromatography buffer (20 mM HEPES pH 7.5, 0.25% Triton X-100, 1 mM EDTA, 1 mM EGTA) containing 1M NaCl. […]

The target in assay [10] is c-Kit (Homo sapiens, UniProt P10721). The experiment in a line: General kinase assay, selectivity panel: c-Kit. The following applies: 10 μM of compound, in comparison to DMSO (0% inhibition). Format: biochemical. Summed up:
as §4

Assay [11] concerns the target p56 Lck (Homo sapiens, UniProt P06239). The experiment in a line: General kinase assay, selectivity panel: p56 Lck. Format: biochemical. The following applies: 10 μM of compound, in comparison to DMSO (0% inhibition). Summed up:
as §4

Assay [12] has as its target RSK1 (Homo sapiens, UniProt Q15418). The experiment in a line: General kinase assay, selectivity panel: RSK1. Format: biochemical. The following applies: 10 μM of compound, in comparison to DMSO (0% inhibition). As for the experimental part:
The inhibitory effect of compounds according to the present invention on the activity of protein kinases, depicted in Table 1, can be measured according to the following protocol:
Pipettinq Sequence: • 1) Add 10 μl 4 fold concentrated Substrate+4 fold concentrated ATP in 3 fold concentrated Reaction Buffer to each well of Assay Plate • 2) Add 10 μl 4 fold concentrated inhibitor in 4% DMSO in H2O to each well except to C− and C+ wells • 3) Add 10 μl 4% DMSO in H2O to C− and C+ wells • 4) Add 10 μl 500 mM EDTA in H2O to − wells • 5) Add 10 μl 50 μCi/ml Adenosine 5′-[γ-^33P]triphosphate in H2O to each well • 6) Add 10 μl 4 fold concentrated kinase in Reaction Buffer to each well • 7) Incubate 1 hr at room temperature • 8) Add 10 μl 50 mM EDTA in H2O to each well except to C− wells • 9) Prepare MAPH plates by adding 200 μl 0.75% H3PO4 to each well • 10) Exhaust 0.75% H3PO4 using Millipore vacuum station • 11) Add 60 μl 0.75% H3PO4 to each well of MAPH Filter Plate • 12) Transfer 30 μl sample per well from Assay Plate to corresponding well of MAPH Filter Plate • 13) Incubate 30 min at room temperature • 14) Wash each well of MAPH Filter Plates 3× with 200 μl 0.75% H3PO4 using Millipore vacuum station. • 15) Add 20 μl Scintillation Liquid to each well of MAPH Filter Plate • 16) Seal MAPH Filter Plate • 17) Store MAPH Filter Plate 30 min in darkness • 18) Quantify radioactivity
as §3

Assay [13] addresses Abl (Homo sapiens, UniProt P00519). The experiment in a line: General kinase assay, selectivity panel: Abl. Format: biochemical. The following applies: 10 μM of compound, in comparison to DMSO (0% inhibition). Summed up: as §4
Setting [14] is: compound coupled to ECH-Sepharose, mass spectrometry.

Chain of CDK1 (P06493 whole entry, species assumed): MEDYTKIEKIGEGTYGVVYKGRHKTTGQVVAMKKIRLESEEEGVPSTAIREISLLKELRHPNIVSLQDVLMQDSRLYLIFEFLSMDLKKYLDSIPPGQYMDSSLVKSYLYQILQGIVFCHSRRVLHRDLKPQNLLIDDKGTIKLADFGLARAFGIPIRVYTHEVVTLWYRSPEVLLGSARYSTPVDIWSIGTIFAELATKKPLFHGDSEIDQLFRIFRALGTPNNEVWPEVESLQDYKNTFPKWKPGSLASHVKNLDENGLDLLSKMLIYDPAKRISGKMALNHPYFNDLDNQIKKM
Chain of CDK1 (P14635 whole entry partner, species assumed): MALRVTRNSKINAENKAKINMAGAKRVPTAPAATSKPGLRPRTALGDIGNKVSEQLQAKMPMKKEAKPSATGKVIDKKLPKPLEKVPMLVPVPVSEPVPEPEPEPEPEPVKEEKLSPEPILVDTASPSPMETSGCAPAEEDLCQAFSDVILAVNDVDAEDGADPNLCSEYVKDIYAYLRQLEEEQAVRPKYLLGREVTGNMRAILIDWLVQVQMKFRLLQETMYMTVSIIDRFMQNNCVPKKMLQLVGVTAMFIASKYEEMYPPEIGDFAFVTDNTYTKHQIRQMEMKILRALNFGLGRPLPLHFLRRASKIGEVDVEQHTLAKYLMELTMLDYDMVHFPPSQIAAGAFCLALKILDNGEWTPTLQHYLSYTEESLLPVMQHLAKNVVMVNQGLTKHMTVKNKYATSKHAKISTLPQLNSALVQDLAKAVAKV
Chain of EGFR (P00533 25-1210, species assumed): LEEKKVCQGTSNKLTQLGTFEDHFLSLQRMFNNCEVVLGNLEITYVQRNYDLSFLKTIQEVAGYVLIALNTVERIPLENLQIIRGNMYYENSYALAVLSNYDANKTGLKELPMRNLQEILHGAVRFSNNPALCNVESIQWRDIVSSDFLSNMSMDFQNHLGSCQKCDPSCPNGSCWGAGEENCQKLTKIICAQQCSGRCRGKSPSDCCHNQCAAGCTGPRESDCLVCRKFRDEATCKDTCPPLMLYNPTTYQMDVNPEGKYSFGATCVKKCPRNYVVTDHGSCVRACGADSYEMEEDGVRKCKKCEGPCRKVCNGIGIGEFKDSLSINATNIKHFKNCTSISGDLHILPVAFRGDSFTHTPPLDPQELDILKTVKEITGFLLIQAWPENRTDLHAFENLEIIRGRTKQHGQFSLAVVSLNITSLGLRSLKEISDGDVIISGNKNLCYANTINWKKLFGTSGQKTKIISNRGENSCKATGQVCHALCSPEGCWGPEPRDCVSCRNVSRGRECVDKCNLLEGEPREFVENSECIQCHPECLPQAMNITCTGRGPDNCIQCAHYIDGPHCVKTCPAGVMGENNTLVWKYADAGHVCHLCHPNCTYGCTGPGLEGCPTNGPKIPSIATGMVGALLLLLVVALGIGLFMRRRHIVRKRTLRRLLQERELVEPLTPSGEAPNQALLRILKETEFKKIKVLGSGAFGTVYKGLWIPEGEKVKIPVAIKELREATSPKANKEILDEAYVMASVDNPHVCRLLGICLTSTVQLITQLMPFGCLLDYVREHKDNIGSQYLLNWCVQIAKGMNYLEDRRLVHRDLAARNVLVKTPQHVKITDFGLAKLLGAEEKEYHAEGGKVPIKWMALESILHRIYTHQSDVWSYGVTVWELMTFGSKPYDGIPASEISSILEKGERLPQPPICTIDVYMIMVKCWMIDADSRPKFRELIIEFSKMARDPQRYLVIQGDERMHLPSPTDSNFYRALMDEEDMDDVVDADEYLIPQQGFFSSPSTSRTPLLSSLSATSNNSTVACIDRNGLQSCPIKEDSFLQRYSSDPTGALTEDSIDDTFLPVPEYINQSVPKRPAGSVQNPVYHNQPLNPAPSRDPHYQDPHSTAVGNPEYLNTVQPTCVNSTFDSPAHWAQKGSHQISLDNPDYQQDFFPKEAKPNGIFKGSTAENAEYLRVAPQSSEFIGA
T3 sequence (P50750 whole entry): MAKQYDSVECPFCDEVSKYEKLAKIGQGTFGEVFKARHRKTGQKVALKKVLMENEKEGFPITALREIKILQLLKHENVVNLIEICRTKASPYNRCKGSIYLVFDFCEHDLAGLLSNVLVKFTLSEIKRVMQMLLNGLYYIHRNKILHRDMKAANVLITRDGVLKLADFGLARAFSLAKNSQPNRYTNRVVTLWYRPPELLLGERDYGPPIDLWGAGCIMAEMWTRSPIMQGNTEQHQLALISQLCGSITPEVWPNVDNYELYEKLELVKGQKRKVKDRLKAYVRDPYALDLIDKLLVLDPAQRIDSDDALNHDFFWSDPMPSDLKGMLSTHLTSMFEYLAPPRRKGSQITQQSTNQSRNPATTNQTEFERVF
Chain of GSK-3β (P49841 whole entry, species assumed): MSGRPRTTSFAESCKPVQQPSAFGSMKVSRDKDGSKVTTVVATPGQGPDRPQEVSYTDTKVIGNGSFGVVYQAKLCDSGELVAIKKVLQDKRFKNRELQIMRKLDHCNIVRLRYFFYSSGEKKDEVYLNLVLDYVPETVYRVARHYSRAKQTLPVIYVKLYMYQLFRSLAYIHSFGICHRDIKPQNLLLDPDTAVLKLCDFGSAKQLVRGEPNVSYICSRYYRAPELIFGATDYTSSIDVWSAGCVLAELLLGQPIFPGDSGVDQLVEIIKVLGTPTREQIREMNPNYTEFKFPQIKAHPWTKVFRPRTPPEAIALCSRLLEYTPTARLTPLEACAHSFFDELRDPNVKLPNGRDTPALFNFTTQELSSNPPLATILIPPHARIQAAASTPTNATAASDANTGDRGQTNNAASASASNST
Chain of Abl (P00519 whole entry, species assumed): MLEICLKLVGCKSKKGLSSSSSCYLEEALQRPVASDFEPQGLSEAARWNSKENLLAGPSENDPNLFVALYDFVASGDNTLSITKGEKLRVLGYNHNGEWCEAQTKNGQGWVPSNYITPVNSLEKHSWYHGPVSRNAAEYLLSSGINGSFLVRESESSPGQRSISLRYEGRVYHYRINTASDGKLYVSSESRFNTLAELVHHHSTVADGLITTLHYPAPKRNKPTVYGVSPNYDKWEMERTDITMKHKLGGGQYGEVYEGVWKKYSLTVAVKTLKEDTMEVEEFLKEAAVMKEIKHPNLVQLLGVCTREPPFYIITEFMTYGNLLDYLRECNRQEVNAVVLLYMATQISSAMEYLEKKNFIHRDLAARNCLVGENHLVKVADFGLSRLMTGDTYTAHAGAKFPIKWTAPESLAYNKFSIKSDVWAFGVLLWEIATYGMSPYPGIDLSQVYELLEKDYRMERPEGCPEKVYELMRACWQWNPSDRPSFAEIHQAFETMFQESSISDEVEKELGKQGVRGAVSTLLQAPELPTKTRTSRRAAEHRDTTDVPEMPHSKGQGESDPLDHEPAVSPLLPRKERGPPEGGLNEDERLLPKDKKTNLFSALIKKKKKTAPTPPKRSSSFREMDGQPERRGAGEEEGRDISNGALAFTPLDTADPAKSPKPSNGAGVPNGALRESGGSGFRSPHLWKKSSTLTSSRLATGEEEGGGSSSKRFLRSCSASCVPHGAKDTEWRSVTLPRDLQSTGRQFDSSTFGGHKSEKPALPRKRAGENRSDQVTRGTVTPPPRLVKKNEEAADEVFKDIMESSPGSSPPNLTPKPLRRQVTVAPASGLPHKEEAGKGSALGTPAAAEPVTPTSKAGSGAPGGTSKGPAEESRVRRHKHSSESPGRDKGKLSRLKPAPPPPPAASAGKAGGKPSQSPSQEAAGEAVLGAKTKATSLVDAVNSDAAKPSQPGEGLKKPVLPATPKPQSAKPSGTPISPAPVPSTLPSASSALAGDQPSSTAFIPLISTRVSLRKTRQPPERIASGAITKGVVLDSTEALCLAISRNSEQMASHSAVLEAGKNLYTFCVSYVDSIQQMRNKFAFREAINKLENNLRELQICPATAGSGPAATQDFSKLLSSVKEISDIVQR
Chain of p56 Lck (P06239 whole entry): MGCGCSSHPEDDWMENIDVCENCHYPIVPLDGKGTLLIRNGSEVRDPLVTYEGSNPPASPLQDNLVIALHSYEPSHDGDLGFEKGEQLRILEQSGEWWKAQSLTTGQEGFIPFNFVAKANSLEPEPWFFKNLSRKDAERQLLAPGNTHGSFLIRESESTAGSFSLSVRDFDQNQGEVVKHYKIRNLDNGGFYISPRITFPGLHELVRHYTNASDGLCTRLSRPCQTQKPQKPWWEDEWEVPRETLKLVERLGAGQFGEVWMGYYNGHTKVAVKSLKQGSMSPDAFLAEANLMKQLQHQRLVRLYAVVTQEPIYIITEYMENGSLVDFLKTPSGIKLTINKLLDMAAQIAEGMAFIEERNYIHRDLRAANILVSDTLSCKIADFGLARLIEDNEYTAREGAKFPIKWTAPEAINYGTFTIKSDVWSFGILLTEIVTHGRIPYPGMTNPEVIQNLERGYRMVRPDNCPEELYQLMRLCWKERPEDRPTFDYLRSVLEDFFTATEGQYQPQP

Turning to `COC(=O)CN(c1ccc(Nc2cc(-c3ccccc3OC)ncn2)cc1)S(=O)(=O)c1ccc(C)cc1` [Compound 28], in assay [1], the “CDK2 inhibition (in words)” value is given as “tendency to inhibit potently”. In addition, the “effect on growth of PM1 cells (in words)” value in assay [2] is listed as “affect severely”.
With `NCCCOc1ccccc1-c1cc(Nc2ccc(NC(=O)c3ccc(N)cc3)cc2)ncn1` [Compound 103, 4-Amino-N-(4-{6-[2-(3-amino-propoxy)phenyl]-pyrimidin-4-ylamino}-phenyl)-benzamide], the inhibition at 10 µM in [3] was 50 to 80%; in assay [4], 50 to 80%; in assay [5] it was above 80%; in [6], 50 to 80%. Also, in assay [7], the “PDGFR (% inhibition)” value was “c (inhibition between 50 and 30%: c)”. Moreover, the “isolation of CDK9 out of crude PM1 cell lysates by affinity medium” value in [8] was “able to isolate CDK9”. Further, the “protein kinases in eluates: CaMK2β, GSK3α, CDK2, CrkRS, receptor similar to FGFR-3” value in assay [9] (LCMS analysis of eluates) is recorded as “detected”. The “additional targets bound: GSK3β, c-Src tyrosine kinase (CSK)” value in [9] (setting [14]) is “specifically bound”.
Consider `COc1ccccc1-c1cc(Nc2ccc(N3CCCC3=O)cc2)ncn1` [Compound 9], for which the “CDK2 inhibition (in words)” value in assay [1] is “tendency to inhibit potently”. The “CDK1 (% inhibition)” value in assay [4] is “a (inhibition greater than 80%: a)”. For the same compound, the “EGFR (% inhibition)” value in [5] is “b (inhibition between 80 and 50%: b)”. Further, the “GSK-3β (% inhibition)” value in assay [6] was “b (inhibition between 80 and 50%: b)”. Besides, the “PDGFR (% inhibition)” value in assay [7] was “c (inhibition between 50 and 30%: c)”. Besides, in assay [10], the “c-Kit (% inhibition)” value is “c (inhibition between 50 and 30%: c)”. Moreover, in assay [11], the “p56 Lck (% inhibition)” value was “b (inhibition between 80 and 50%: b)”. Further, the “RSK1 (% inhibition)” value in [12] was “c (inhibition between 50 and 30%: c)”. In assay [2], the “effect on growth of PM1 cells (in words)” value was “affect severely”.
For `COc1ccccc1-c1cc(Nc2ccc(NC(=O)CCN)cc2)ncn1` [Compound 102, 3-Amino-N-{4-[6-(2-methoxy-phenyl)-pyrimidin-4-ylamino]-phenyl}-propionamide], the inhibition at 10 µM in assay [3] is above 80%; in assay [13], 30 to 50%; in [4], 50 to 80%; in assay [5], above 80%. In assay [7], the “PDGFR (% inhibition)” value was “b (inhibition between 80 and 50%: b)”. In addition, in [8], the “isolation of CDK9 out of crude PM1 cell lysates by affinity medium” value is reported as “able to isolate CDK9”. For the same compound, the “protein kinases in eluates: CaMK2β, MLK (MRK-alpha), yes, cdc2-like protein kinase (CDC2L5), CrkRS, MAK” value in [9] (LCMS analysis of eluates) is “identified”. Besides, in assay [9] (setting [14]), the “additional targets bound: CaMK2γ, CaMK2δ, CDK2, MRK-beta (ZAK)” value is “specifically bound”.

The values above are taken from patent US8084457B2, “Pharmaceutically active 4,6-disubstituted aminopyrimidine derivatives as modulators of protein kinases” (Lead Discovery Center GmbH, priority 2003, dated 2011).
